Test results published in US20250228242A1 (priority 2021, published 2025).
Structures can show the parent of a compound that is named as a salt.

Tests used:
Albugo candida [1] = test: Albugo candida on A. thaliana, syringe infiltration of compound, visual scoring of disease severity; format: in vivo; details: in Arabidopsis thaliana, read-out: A. candida Inhibitory effect
Procedure: (§1) A. thaliana seeds were stratified on moist soil (Einheitserde type A240, Stender, Germany) for seven days at 4° C. in darkness, before transfer into growth chambers with short day conditions (10 h light, 14 h darkness, 23/20° C., 60% humidity). After three weeks, seedlings were singularised and grown for three weeks further. After six weeks, A. thaliana plants were used for experiments and after infection they were transferred into SANYO (Panasonic MLR-352, Japan) growth cabinets (10 h light, 14 h darkness, 22/16° C.). Potato plants were grown from tubers by covering them with soil (Einheitserde type A240, Stender, Germany). The leaves of adult plants (˜4-6 weeks old) were cut off and kept in a moist environment for infection assays.
(§2) For regular Albugo sp. infections A. thaliana Ws-0 was sprayed with an Albugo sp. conidiospores solution. These spore solutions were prepared by harvesting sporulating leaf material at 14 days post infection (dpi) and adding water for rehydration of the spores. Spore solutions were hold on ice for ˜1 h, before filtering through miracloth (Merck Millipore, Germany) to remove dirt. Spores were counted and the solutions diluted to 22.2×10^4 conidiospores/ml. Albugo sp. spore solutions were sprayed uniformly on A. thaliana leaves (4.5 ml per six plants) using an airbrush gun. During spraying, plants were placed in a plastic bag and afterwards transferred into a cold room to incubate at 4° C. in darkness (˜16 h). The next morning, plants were transferred into plant growth cabinets, but left in clear bags to keep humidity high, which supports Albugo sp. infections. ˜24 h later plants were unbagged and further incubated under normal plant growth conditions.
(§3) Afterwards, the plants were kept in the lab for ˜1 h to let the leaves equilibrate again. The infiltrated plants were infected with Albugo sp., following the above-mentioned protocol. At 7 dpi, infiltrated leaves were phenotypically scored and harvested. The samples were frozen in liquid nitrogen and stored at −80° C. until DNA extraction for growth quantification via qPCR. For experiment 4, A. candida spore solutions were prepared as before and mixed with 10 mM stock solution of the test compound (100 μM end conc.). The mixture of spore solution and test compound was sprayed and incubated as for experiment 2 and 3.
(§4) • Fungicidal activity against other oomycetes was tested using isolates of the obligate biotrophic pathogen genus Albugo on Arabidopsis thaliana. The test compounds, 100 μM in 1% DMSO, were syringe infiltrated into adult A. thaliana and subsequently sprayed with aqueous spore solutions of Albugo laibachii or A. candida. In primary screenings, disease severity was visually screened and scored at nine days post infection (dpi) (Table 2+3).

Rhodococcus sp. = test: Bacterial liquid culture growth curves (OD600), Rhodococcus sp.; details: 18.5 h, read-out: Absolute growth rate relative to mock control, Rhodococcus sp.
Phytophthora infestans = test: whole plant or invertebrate; format: in vivo; details: in Solanum tuberosum, 120 h, read-out: P. infestans % inhibition
[2] = test system: Pseudomonas syringae pv. tomato (Pto) DC3000; test: Bacterial liquid culture growth curves (OD600), Pto DC3000; details: 18.5 h, read-out: Absolute growth rate relative to mock control, Pto DC3000
Albugo candida [3] = test: Albugo candida growth on A. thaliana after syringe infiltration, quantified via qPCR; format: in vivo; details: for inhibition at 100 µM: Albugo candida, in Arabidopsis thaliana, qPCR at 7 dpi, A. thaliana; for inhibition of A. candida growth (in words): Table 4, qPCR at 7 dpi
Albugo laibachii [4] = test: Albugo laibachii growth on A. thaliana after syringe infiltration, quantified via qPCR; format: in vivo; details: for inhibition at 100 µM: Albugo laibachii, in Arabidopsis thaliana, qPCR at 7 dpi, A. thaliana; for inhibition of A. laibachii growth (in words): Table 4, qPCR at 7 dpi, p 5 0.05
Albugo laibachii [5] = test: Albugo laibachii on A. thaliana, syringe infiltration of compound, visual scoring of disease severity; format: in vivo; details: in Arabidopsis thaliana, 100 μM in 1% DMSO syringe infiltrated into adult A. thaliana, visually scored at nine dpi, read-out: A. laibachii Inhibitory effect
Procedure: as §1, §2, §3, §4

A. candida = A. candida growth on A. thaliana after spray application of spore solution mixed with compound, qPCR; format: in vivo, Albugo candida; details: for inhibition at 100 µM: Candida, in Arabidopsis thaliana, spray application of spore solution mixed with 100 μM compound in 1% DMSO, qPCR at 7 dpi, A. thaliana
P. infestans = test: whole plant or invertebrate; format: in vivo; details: Phytophthora infestans, in Solanum tuberosum, read-out: P. infestans % inhibition
Phakopsora pachyrhizi = test: Soybean rust on soybean (Glycine max) leaves, syringe infiltration of compound, visual scoring; format: in vivo; details: 100 μM in 1% DMSO syringe infiltrated into adult G. max, visually scored at nine dpi, read-out: P. pachyrhizi Inhibitory effect
Procedure: Soybean plants were grown from pregerminated soybeans by putting them 1 cm deep into soil (Einheitserde type A240, Stender, Germany). Plants were grown in growth cabinets (16h light at 400 μM/m^2s and 22-24° C.-8h dark at 21-22° C.). 14 days after soil planting, plants were used for infection and experiments. Following inoculation with rust spores, plants were transferred back to growth cabinet prior to symptom screening.
Infiltration was always done through somata at the lower site of the leaf under light conditions to ensure stomata are open. Afterwards, the plants were kept in the growth cabinet for ˜1 h to let the leaves equilibrate again. The infiltrated plants were inoculated with Soybean rust spores using an airbrush and 0.01% Tween20 to ensure homogenous wetting. Plants were afterwards incubated for 24h in the dark at 24° C. and 100% humidity. At 9 dpi, infiltrated leaves were phenotypically scored.
• Fungicidal activity against Soybean rust was tested using a highly virulent stain of Phakopsora pachyrhizi and commercially available Soybeans.
The test compounds, […] 100 μM in 1% DMSO, were syringe infiltrated into adult G. max plants and subsequently sprayed with aqueous spore solutions and 0.01% Tween. In primary screenings, disease severity was visually screened and scored at nine days post infection (dpi) (Table 8).

Compound	inhibition at 100 µM (Albugo candida [1])	activity at 100 µM (Rhodococcus sp.)	inhibition at 100 µM (Phytophthora infestans)	activity at 100 µM [2]	inhibition at 100 µM (Albugo candida [3])	inhibition of A. candida growth (in words) (Albugo candida [3])	inhibition at 100 µM (Albugo laibachii [4])	inhibition of A. laibachii growth (in words) (Albugo laibachii [4])	inhibition at 100 µM (Albugo laibachii [5])	inhibition at 100 µM (A. candida)	growth inhibition of A. candida (in words) (A. candida; Table 5, spore solution mixed with compound, sprayed)	inhibition at 100 µM (P. infestans)	inhibition at 100 µM (Phakopsora pachyrhizi)
Oc1ccc(-c2cc(-c3cc(O)c(O)c(O)c3)n[nH]2)cc1O [Compound 5, 5-(3,4-Dihydroxyphenyl)-3-(3,4,5-trihydroxyphenyl)-1H-pyrazole]	> 70%	64%	89%	40%	–	–	–	–	–	–	–	–	–
Brc1ccccc1-c1cc(-c2ccc3c(c2)OCO3)n[nH]1 [Compound 10, 3-(1,3-Benzodioxol-5-yl)-5-(2-bromophenyl)-1H-pyrazole]	–	24%	82%	111%	68%	strong inhibition	36%	–	–	–	–	–	–
COc1ccc(-c2cc(-c3ccc(OC)c(OC)c3)on2)cc1 [Compound 19, 5-(3,4-Dimethoxyphenyl)-3-(4-methoxyphenyl)isoxazole]	> 70%	58%	26%	95%	70%	strong inhibition	59%	significantly inhibited	–	–	–	–	–
Oc1ccc(-c2cc(-c3ccc(O)c(O)c3)on2)cc1 [Compound 22, 5-(3,4-Dihydroxyphenyl)-3-(4-hydroxyphenyl)isoxazole]	–	–	63%	–	53%	strong inhibition	49%	significantly inhibited	> 70%	–	–	–	–
Br.Oc1ccc(-c2noc(-c3ccc(O)c(O)c3)n2)cc1O [Compound 24, 3,5-Bis(3,4-Dihydroxyphenyl)-1,2,4-oxadiazole hydrobromide]	> 70%	19%	80%	95%	80%	strong inhibition	16%	–	–	41%	–	–	–
Oc1ccc(-c2c[nH]c(-c3ccc(O)c(O)c3)n2)cc1O [Compound 28, 2,4-Bis(3,4-dihydroxyphenyl)-1H-imidazole hydrobromide]	–	71%	30%	49%	49%	–	4%	–	30 to 70%	–	–	–	–
Br.Oc1ccc(-c2cc(-c3ccc(Cl)cc3)[nH]n2)cc1 [Compound 36, 5-(4-Chlorophenyl)-3-(4-hydroxyphenyl)-1H-pyrazole hydrobromide]	> 70%	9%	95%	104%	–	–	–	–	–	94%	strong growth inhibition	85%	–
Brc1ccc(-c2cc(-c3ccc4c(c3)OCO4)n[nH]2)cc1 [Compound 38, 3-(1,3-Benzodioxol-5-yl)-5-(4-bromophenyl)-1H-pyrazole]	–	–	–	–	53%	strong inhibition	50%	significantly inhibited	> 70%	–	–	–	–
COc1ccc(-c2cc(-c3ccc(OC)c(OC)c3)on2)cc1OC [Compound 43, 3,5-Bis(3,4-dimethoxyphenyl)isoxazole]	> 70%	75%	–	114%	–	–	–	–	–	–	–	–	–
CCc1ccc(-c2cc(-c3cccc(NC(=O)[C@@H](N)CO)c3)[nH]n2)cc1 [Compound 129, (2S)-2-Amino-N-{3-[3-(4-ethylphenyl)-1H-pyrazol-5-yl]phenyl}-3-hydroxypropanamide hydrochloride]	–	–	–	–	–	–	–	–	–	–	–	97%	> 70%
O=C(c1ccc(-c2cc(-c3ccc(F)cc3)[nH]n2)cc1)N1CCOCC1 [Compound 143, {4-[5-(4-Fluorophenyl)-1H-pyrazol-3-yl]phenyl}(morpholin-4-yl)methanone]	–	–	–	–	–	–	–	–	–	–	–	94%	5 to 30%
